How the values were obtained:
[1] = tested on: seven human cancer cell lines; assay: Cytocidal action on human cancer cell lines; type: cell-based
Experimental: Seven human cancer cell lines were obtained from the American Tissue Culture Collection (Rockville, Md.) and maintained in the recommended growth media. Cells were seeded into wells (2 cm^2) at a density of 2×10^4 cells/cm^2. Various concentrations of Compounds 1-13 were added to the media at the time of seeding.
The cultures were incubated for 72 hours at 37° C. (5% CO2 atmosphere). Following incubation, cells were detached with trypsin and counted in a hemocytometer.

[2] = tested on: E-ras 20 cells (E-ras transformed bovine endothelial cells); assay: Tumorigenicity of pretreated E-ras 20 cells in athymic nude mice; type: in vivo, bovine cells in nude mice; conditions: 10 μM, 4 days pretreatment; tumor size at day 25
Experimental: E-ras transformed bovine endothelial cells (Bauer et al., 1996, Intl. J. Oncology 8:239-252) were exposed to 10 μM DIME for […]. The DIME-treated cells (10^5 or 10^6 cells/100 μL) were injected subcutaneously into nude mice and tumor progression followed for 25 days.
Tumorigenicity of E-ras 20 Cells in athymic nude mice was assayed as described previously. Bauer et al., 1996, "Modification of growth related enzymatic pathways and apparent loss of tumorigenicity of a ras-transformed bovine endothelial cell line by treatment with 5-iodo-6-amino-1,2-benzopyrone (INH2 BP)" Intl. J. Oncol. 8:239-252. The in vivo antitumorigenic action of DIME was assayed on athymic mice inoculated with 10^6 MDA-MB-231 cells, as in the tumorgenicity assay. In about 10-14 days when subcutaneous tumors appeared, DIME treatment consisting of p.o. administration of DIME suspension (once a day) was commenced and continued for 28-32 days as reported, Kun et al., 1996, "Induction of tumor apotosis by methyl-3,5-diiodo-4-(4'-methoxyphenoxy) benzoate (DIME)", Abstract No. 102, Int. J. Oncol. 9:supplement 829.
The structural specificity of DIME and its homologs and analogs can be assessed by examining Table 7 and Table 8. We have prepared 17 novel structural analogs of DIME and compared the antitumor activity of 10 of the compounds (Table 8) which appears sufficient to draw some general conclusions. The biological assay chosen was the determination of antitumorigenic action of the drugs on the in vivo tumorigenicity of E-ras cells in nude mice, Bauer et al., 1996, "Modification of growth related enzymatic pathways and apparent loss of tumorigenicity of a ras-transformed bovine endothelial cell line by treatment with 5-iodo-6-amino-1,2-benzopyrone (INH2 BP)" Intl. J. Oncol. 8:239-252. E-ras 20 cells (10^5 or 10^6) were incubated with 10 μM DIME or analogs for 4 days, then 10^5 and 10^6 cells were inoculated subcutaneously into nude mice (5 per test) and rates of tumor formation quantitated by direct tumor volume measurements (cf. 2). […] Identical antitumorigenic tests were performed with nine DIME analogs and taking the effect of DIME as 100% (comparing tumor sizes at day 25) the antitumor efficacy was calculated as percent of DIME activity. […] Results summarized in Table 8 illustrate that substituents in R1 and R2 determine antitumor efficacy.
The efficacy of DIME analogs on in vivo tumorigenicity of Eras 20 cells i
athymic mice was compared to that of DIME (compound 1) which was taken as
100, determining the size of tumor reduction at day 25. Pretreatment with
DIME or its analogs (Table 7) was with 10 μM for 4 days prior to s.c.

[3] = tested on: microtubule protein (MTP); assay: Microtubule protein (MTP) polymerization optical test; type: biochemical, bovine or rabbit; conditions: for Percent inhibition of initial velocity of microtubule assembly: 10 μM, 1 mM GTP, 37° C.
Experimental: Preparation of MTP and an optical test for polymerization was adopted from published methods, Gaskin, et al., 1974, "Turbidimetric studies of the in vitro assembly and disassembly of porcine neurotubules", J. Mol. Biol. 89:737-758; Tiwari, et al., 1993, "A pH and temperature-dependent cycling method that doubles the yield of microtubule protein", Anal. Biochem. 215:96-103. Bovine or rabbit brain was homogenized in an equal volume of ice cold buffer containing 100 mM Pipes/K^+ (pH 7.4), 4 mM EGTA, 1 mM MgCl2, 0.5 mM DTT and 0.1 mM PMSF, and centrifuged at 39,000 g for 1 hour at 4° C. To the supernatant, DMSO (8% final concentration) and GTP (1 mM final concentration) were added, followed by incubation at 37° C. for 30 minutes. Microtubules were pelleted at 100,000 g at 37° C for 30 minutes. The pellets were incubated on ice for 15 minutes, followed by resuspension in ice cold PEM buffer (100 mM Pipes/K+(pH 6.9), 1 mM EGTA, 1 mM MgCl2). This warm polymerization and cold depolymerization cycle was repeated once more and the cold, resuspended monomeric MTP (8-10 mg/ml protein) was used for the optical test for polymerization kinetics. Both rabbit or bovine brain yielded identical MTP preparations.
The composition of the optical test is described in the legends of Figures and Table 12. The polymerization reaction was started by the addition of 100 μl of MTP solution (equivalent to 0.8-1.0 mg protein) and initial linear rates of increase in absorbance at 350 nm followed and recorded at 37° C. (see FIG. 1) in a Perkin-Elmer 552 double beam spectrophotometer, equipped with a thermostatically controlled cuvette holder.
[…] Microtubule assembly at 37° C. was monitored at λ=350 nm and initial velocities were calculated as mA350 /min. […] The values are averages of duplicate assays.

[4] = tested on: protein phosphatase 2A; assay: Activation of purified protein phosphatase 2A (32P-histone H1 dephosphorylation); type: biochemical; conditions: 50 μM
Experimental: 2.1 Preparation of ^32 P-labeled Histone H1 Substrate
Histone H1 was phosphorylated with protein kinase C (Upstate Biotechnology,Inc., Lake Placid, N.Y.) in a volume of 100 μL according to standard protocols. Alternatively, histone H1 was phosphorylated with p34cdc2 kinase purified from rapidly multiplying Mytilus Edulis embryos at 4-8 stage after isolation with the p^13 -Suc agarose technique (Smythe and Newport, 1992, "Coupling of Mitosis to the Completion of S Phase in Xenopus Occurs via Modulation of the Tyrosine Kinase that Phosphorylates p34cdc2," Cell 68:787-797).
125 ng purified protein phosphatase 2A (Upstate Biotechnology, Inc., Lake Placid, N.Y.; Usui et al., 1983, J. Biol. Chem. 258:10455-10463) was preincubated with thyroxine analogue (50 μM) in buffer (20 mM MOPS or Tris, pH 7.5, 1 mM MgCl2, 60 μM β-mercaptoethanol) for 10 min. at 23° C. Total reaction volume was 20 μL. ^32 P-labeled histone H1 substrate (10 μg, 10^5 cpm) was added and the dephosphorylation reaction allowed to proceed for 5 min. at 23° C., after which time the reaction was quenched by addition of 2 μL Laeimli buffer. An identical reaction containing 125 ng untreated protein phosphatase 2A was run as a control.
Phosphorylated and dephosphorylated histone H1 were separated by gel electrophoresis (12% SDS-PAGE), bands containing phosphorylated histone H1 excised and assayed for ^32 P activity via scintillation counter.
The velocity of dephosphorylation in 5 min. is an indication of the initial velocity (Vinit) of the dephosphorylation reaction.

[5] = tested on: MDA-MD-231 cells; assay: Inhibition of tumor cell growth; type: cell-based, human; conditions: 3 days; for Cells (growth): control 0.95
Experimental: MDA-MD-231 human cancer cells were obtained from the American Tissue Culture Collection (Rockville, Md.) and maintained in the recommended growth media. Cells were grown in the presence of various concentrations of Compounds 1 and 14 for 3 days at 37° C.

[6] = tested on: MDA-MB-231 cells; assay: Immunocytochemistry of mitotic spindle and spindle-associated proteins; type: cell-based, human; conditions: 100 nM, 18 hrs; data not shown
Experimental: Cells were fixed in methanol at -20° C. for 5 min. The primary antibody was mouse monoclonal anti-beta tubulin (Amersham) and secondary antibody from goat, conjugated to fluorescein isothiocyanate from Cappel (Durham, N.C., USA). The DNA of nuclei was stained by 10 min of incubation in 0.05 μg/ml 4'-6-diamidono-2-phenylindole (DAPI). Stained cells were viewed with either a Zeiss 40xPlan-Neofluar or a Nikon 60xPlanApo objective. For classification of cells in the mitotic phase, prophase and metaphase were combined into a single category, because it was difficult to distinguish late prophase from metaphase.
In preliminary studies (data not shown) we have also studied the behavior of certain spindle-associated proteins by the immunocytologic technique.

Row | Compound | Efficacy (inhibition of E-ras 20 tumorigenicity, DIME = 100) [2] | Percent inhibition of initial velocity of microtubule assembly [3] | further results
1 | CCOc1ccc(Oc2c(I)cc(C(=O)OC)cc2I)cc1 [Compound 2, Methyl 3,5-diiodo-4-(4'-ethoxyphenoxy)benzoate] | 93% | 76% | Emax ([1]; 72 hours, human cancer cells, read-out: maximal cytocidal activity as compared to DIME): 25 to 30%
2 | CCCOc1ccc(Oc2c(I)cc(C(=O)OC)cc2I)cc1 [Compound 3, Methyl 3,5-diiodo-4-(4'-n-propoxyphenoxy)benzoate] | 44% |  | activation of protein phosphatase 2A [4]: did not activate; Activity/5 min (initial velocity of histone H1 dephosphorylation) ([4]; 10 min preincubation, control 10217 ± 1708, average of three samples): 7521 ± 1562 cpm; activity in cellular assays and in vivo [1]: completely inactive
3 | CCCCOc1ccc(Oc2c(I)cc(C(=O)OC)cc2I)cc1 [Compound 4, Methyl 3,5-diiodo-4-(4'-n-butoxyphenoxy)benzoate] | 4% | 8% | 
4 | CCOC(=O)c1cc(I)c(Oc2ccc(OC)cc2)c(I)c1 [Compound 5, Ethyl 3,5-diiodo-4-(4'-methoxyphenoxy)benzoate] | 83% | 35% | activity in cellular assays and in vivo [1]: completely inactive
5 | COc1ccc(Oc2c(I)cc(C(=O)O)cc2I)cc1 [Compound 6, 3,5-diiodo-4-(4'-methoxyphenoxy)benzoic acid] | 45% | 0% | inhibitory effect on MTP polymerization ([3]; methyl ester replaced): completely abolishes the inhibitory effect on MTP polymerization
6 | COc1ccc(Oc2c(I)cc(C(N)=O)cc2I)cc1 [Compound 7, 3,5-diiodo-4-(4'-methoxyphenoxy)benzamide] | 53% | 43% | 
7 | CNC(=O)c1cc(I)c(Oc2ccc(OC)cc2)c(I)c1 [Compound 8, 3,5-diiodo-4-(4'-methoxyphenoxy)-N-methyl benzamide] | 22% |  | 
8 | COc1ccc(Oc2c(I)cc(C(=O)N(C)C)cc2I)cc1 [Compound 9, 3,5-diiodo-4-(4'-methoxyphenoxy)-N,N-dimethyl benzamide] | 64% | 6% | 
9 | COC(=O)c1cc(I)c(Oc2ccc(O)cc2)c(I)c1 [Compound 10, Methyl 3,5-diiodo-4-(4'-hydroxyphenoxy) benzoate] | 14% |  | 
10 | COC(=O)c1cc(I)c(Oc2ccc(OC)cc2Cl)c(I)c1 [Compound 14, Methyl 3,5-diiodo-4-(2'-chloro-4'-methoxyphenoxy)benzoate] |  |  | Cells (growth) ([5]; 0.5 μM): 0.95 ×10^6; Cells (growth) ([5]; 1.0 μM): 0.71 ×10^6; Cells (growth) ([5]; 2.0 μM): 0.20 ×10^6; inhibitory activity as compared to DIME [5]: about 25%
11 | COC(=O)c1cc(I)c(Oc2ccc(OC(F)(F)F)cc2)c(I)c1 [Compound 18] |  | 7% | 
12 | C=C1[C@@H](O)[C@@H]2O[C@]3(CC[C@H](/C=C/[C@@H](C)[C@@H]4CC(C)=C[C@@]5(O[C@H](C[C@@](C)(O)C(=O)O)CC[C@H]5O)O4)O3)CC[C@H]2O[C@@H]1[C@@H](O)C[C@H](C)[C@H]1O[C@@]2(CCCCO2)CC[C@H]1C [okadaic acid, reference compound] |  |  | cdc-2 kinase- and pp2a-spindle association [6]: abolished only cdc-2 kinase- and pp2a-spindle association

— patent US6017958A, “Method of treating malignant tumors with thyroxine analogues having no significant hormonal activity” (Octamer, Inc., priority 1997, dated 2000)
